Test results reported in US8247211B2, “Glycopeptide antibiotics” (American Cyanamid Company, priority 2001, dated 2012).
Values after ≈ are worked out from the molar mass of the structure shown.

Assays:
Experiment in all cases: In vitro antibacterial evaluation: minimum inhibitory concentration (MIC), broth dilution method
Format in all cases: cell-based
Enterococcus sp. = system: Enterococcus sp.
Method in brief: (§1)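 NCCLS M7-A2 broth dilution with Mueller-Hinton II, testing 64-0.06 μg/mL antibiotic against 5×10^5 CFU/mL inocula. Test strains include recent methicillin-, penicillin- or vancomycin-resistant clinical isolates. MIC is the lowest concentration preventing growth.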

Escherichia coli = system: Escherichia coli
Method in brief: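 NCCLS M7-A2 broth dilution; Muller-Hinton II […]; 5×10^5 CFU/mL; 64-0.06 μg/mL. MIC = lowest concentration with no growth.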

Staphylococcus sp. = system: Staphylococcus sp.
Method in brief: as §1

Streptococcus sp. = system: Streptococcus sp.
Method in brief: as §1

[1] = broth dilution, 5×10^5 CFU/mL, 18 hours at 35° C.
[2] = 5×10^5 CFU/mL, 18 hours at 35° C.
[3] = broth dilution, 18 hours at 35° C.

CC(c1ccccc1)C1NC(=O)CNC(=O)C(CO)NC(=O)C(C(O)C2CNC(=N)N2C2OC(CO)C(O)C(O)C2O)NC(=O)C(C(O)C2CNC(=N)N2)NC(=O)C(Cc2ccc(OC3OC(CO)C(OC4OC5COC(Cc6ccc(Br)cc6)OC5C(O)C4O)C(O)C3O)cc2)NC1=O (stereo not drawn) [Example 118, Cyclo[glycyl-β-methylphenylalanyl-O-[4-O-[4,6-O-(4-bromophenethylidene)hexopyranosyl]-hexopyranosyl]tyrosyl-3-(2-iminoimidazolidin-4-yl)seryl-3-(3-hexopyranosyl-2-iminoimidazolidin-4-yl)serylseryl]]
MIC Enterococccus avium (GC 4558) (Enterococcus sp.; [1]): 1 to 2 µg/mL
MIC Enterococccus faecalis (ATCC 29212) (Enterococcus sp.; [1]): 1 to 2 µg/mL
MIC Enterococccus faecalis (GC 2691) (Enterococcus sp.; [1]): 1 to 2 µg/mL
MIC Enterococccus faecalis (GC 3059) (Enterococcus sp.; [1]): 1 to 2 µg/mL
MIC Enterococccus faecalis (GC 4552) (Enterococcus sp.; [1]): 1 to 2 µg/mL
MIC Enterococccus faecalis (GC 4553) (Enterococcus sp.; [1]): 1 to 2 µg/mL
MIC Enterococccus faecalis (GC 4554) (Enterococcus sp.; [1]): 1 to 2 µg/mL
MIC Enterococccus faecalis (GC 6189) (Enterococcus sp.; [1]): 1 to 2 µg/mL
MIC Enterococccus faecium (GC 2243) (Enterococcus sp.; [1]): 1 µg/mL (≈ 0.677 µM)
MIC Enterococccus faecium (GC 4556) (Enterococcus sp.; [1]): <0.5 to 1 µg/mL
MIC Enterococccus faecium (GC 4557) (Enterococcus sp.; [1]): <0.5 to 2 µg/mL
MIC Enterococcus faecalis (GC 2242) (Enterococcus sp.; [1]): <0.5 to 2 µg/mL
MIC Escherichia coli (GC 4559) (Escherichia coli; [2]): 16 µg/mL (≈ 10.8 µM)
MIC Escherichia coli (GC 4560) (Escherichia coli; [2]): 1 µg/mL (≈ 0.677 µM)
MIC Staphylococcus aureus (ATCC 29213) (Staphylococcus sp.; strain ATCC 29213): <0.5 to 1 µg/mL
MIC Staphylococcus aureus (ATCC 29213) (Staphylococcus sp.; strain ATCC 29213, broth dilution, 18 hours at 35° C.): <0.5 to 1 µg/mL
MIC Staphylococcus aureus (GC 1131) (Staphylococcus sp.; strain GC 1131): <0.5 to 1 µg/mL
MIC Staphylococcus aureus (GC 1131) (Staphylococcus sp.; strain GC 1131, broth dilution, 18 hours at 35° C.): <0.5 to 1 µg/mL
MIC Staphylococcus aureus (GC 3051) (Staphylococcus sp.; strain GC 3051): <0.5 to 1 µg/mL
MIC Staphylococcus aureus (GC 3051) (Staphylococcus sp.; strain GC 3051, broth dilution, 18 hours at 35° C.): <0.5 to 1 µg/mL
MIC Staphylococcus aureus (GC 3053) (Staphylococcus sp.; strain GC 3053): 1 µg/mL (≈ 0.677 µM)
MIC Staphylococcus aureus (GC 3053) (Staphylococcus sp.; strain GC 3053, broth dilution, 18 hours at 35° C.): 1 µg/mL (≈ 0.677 µM)
MIC Staphylococcus aureus (GC 4541) (Staphylococcus sp.; strain GC 4541): <0.5 to 1 µg/mL
MIC Staphylococcus aureus (GC 4541) (Staphylococcus sp.; strain GC 4541, broth dilution, 18 hours at 35° C.): <0.5 to 1 µg/mL
MIC Staphylococcus aureus (GC 4542) (Staphylococcus sp.; strain GC 4542): <0.5 to 1 µg/mL
MIC Staphylococcus aureus (GC 4542) (Staphylococcus sp.; strain GC 4542, broth dilution, 18 hours at 35° C.): <0.5 to 1 µg/mL
MIC Staphylococcus aureus-SMITH (GC 4543) (Staphylococcus sp.; strain GC 4543, 18 hours at 35° C.): <0.5 to 1 µg/mL
MIC Staphylococcus aureus-SMITH (GC 4543) (Staphylococcus sp.; strain GC 4543, broth dilution, 18 hours at 35° C.): <0.5 to 1 µg/mL
MIC Staphylococcus aureus (GC 4544) (Staphylococcus sp.; strain GC 4544): <0.5 to 1 µg/mL
MIC Staphylococcus aureus (GC 4544) (Staphylococcus sp.; strain GC 4544, broth dilution, 18 hours at 35° C.): <0.5 to 1 µg/mL
MIC Staphylococcus aureus (GC 4545) (Staphylococcus sp.; strain GC 4545): <0.5 to 1 µg/mL
MIC Staphylococcus aureus (GC 4545) (Staphylococcus sp.; strain GC 4545, broth dilution, 18 hours at 35° C.): <0.5 to 1 µg/mL
MIC Coagulase Negative Staphylococcus (GC 4547) (Staphylococcus sp.; strain GC 4547): <0.5 to 1 µg/mL
MIC Coagulase Negative Staphylococcus (GC 4547) (Staphylococcus sp.; strain GC 4547, broth dilution, 18 hours at 35° C.): <0.5 to 1 µg/mL
MIC Coagulase Negative Staphylococcus (GC 4551) (Staphylococcus sp.; strain GC 4551): <0.5 to 1 µg/mL
MIC Coagulase Negative Staphylococcus (GC 4551) (Staphylococcus sp.; strain GC 4551, broth dilution, 18 hours at 35° C.): <0.5 to 1 µg/mL
MIC Streptococcus agalactiae (GC 4564) (Streptococcus sp.; [1]): <0.06 µg/mL
MIC Streptococcus pneumoniae (GC 1894) (Streptococcus sp.; [1]): <0.06 µg/mL
MIC Streptococcus pneumoniae (GC 4565) (Streptococcus sp.; [1]): <0.06 µg/mL
MIC Streptococcus pneumonine (ATCC 6301) (Streptococcus sp.; [1]): <0.06 µg/mL
MIC Streptococcus pyogenes (GC 4563) (Streptococcus sp.; [1]): <0.06 µg/mL

CC(c1ccccc1)C1NC(=O)CNC(=O)C(CO)NC(=O)C(C(O)C2CN(Cc3ccccc3)C(=NCc3ccccc3)N2C2OC(CO)C(O)C(O)C2O)NC(=O)C(C(O)C2CN(Cc3ccccc3)C(=NCc3ccccc3)N2Cc2ccccc2)NC(=O)C(Cc2ccc(OC3OC(CO)C(OC4OC5COC6(OC5C(O)C4O)C4CC5CC(C4)CC6C5)C(O)C3O)cc2)NC1=O (stereo not drawn) [Example 79, Cyclo[glycyl-β-methylphenylalanyl-O-[4-O-[4,6-O-(2-adamantylidene)hexopyranosyl]hexopyranosyl]tyrosyl-3-[1,3-dibenzyl-2-(benzylimino)imidazolidin-4-yl]seryl-3-[1-benzyl-2-(benzylimino)-3-hexopyranosylimidazolidin-4-yl]serylseryl]]
MIC Enterococcus faecalis (GC 2242) (Enterococcus sp.; Enterococcus faecalis (GC 2242), broth dilution, 18 hours at 35° C.): 16 µg/mL (≈ 8.52 µM)
MIC Enterococcus faecalis (GC 2691) (Enterococcus sp.; Enterococcus faecalis (GC 2691), broth dilution, 18 hours at 35° C.): 8 µg/mL (≈ 4.26 µM)
MIC Enterococcus faecalis (GC 3059) (Enterococcus sp.; Enterococcus faecalis (GC 3059), broth dilution, 18 hours at 35° C.): 32 µg/mL (≈ 17 µM)
MIC Enterococcus faecalis (ATCC 29212) (Enterococcus sp.; strain ATCC 29212): 8 µg/mL (≈ 4.26 µM)
MIC Enterococcus faecalis (GC 2242) (Enterococcus sp.; strain GC 2242): 16 µg/mL (≈ 8.52 µM)
MIC Enterococcus faecium (GC 2243) (Enterococcus sp.; strain GC 2243): 8 µg/mL (≈ 4.26 µM)
MIC Enterococcus faecalis (GC 2691) (Enterococcus sp.; strain GC 2691): 8 µg/mL (≈ 4.26 µM)
MIC Enterococcus faecalis (GC 3059) (Enterococcus sp.; strain GC 3059): 32 µg/mL (≈ 17 µM)
MIC Enterococcus faecalis (GC 4552) (Enterococcus sp.; strain GC 4552): 32 µg/mL (≈ 17 µM)
MIC Enterococcus faecalis (GC 4553) (Enterococcus sp.; strain GC 4553): 4 µg/mL (≈ 2.13 µM)
MIC Enterococcus faecalis (GC 4554) (Enterococcus sp.; strain GC 4554): 16 µg/mL (≈ 8.52 µM)
MIC Enterococcus faecium (GC 4556) (Enterococcus sp.; strain GC 4556): 32 µg/mL (≈ 17 µM)
MIC Enterococcus faecium (GC 4557) (Enterococcus sp.; strain GC 4557): 4 µg/mL (≈ 2.13 µM)
MIC Enterococcus avium (GC 4558) (Enterococcus sp.; strain GC 4558): 2 µg/mL (≈ 1.06 µM)
MIC Enterococcus faecalis (GC 6189) (Enterococcus sp.; strain GC 6189): 8 µg/mL (≈ 4.26 µM)
MIC Escherichia coli (GC 4560) (Escherichia coli; strain GC 4560): 2 µg/mL (≈ 1.06 µM)
MIC Coagulase Negative Staphylococcus (GC 4547) (Staphylococcus sp.; [3]): 4 µg/mL (≈ 2.13 µM)
MIC Coagulase Negative Staphylococcus (GC 4548) (Staphylococcus sp.; [3]): 4 µg/mL (≈ 2.13 µM)
MIC Coagulase Negative Staphylococcus (GC 4549) (Staphylococcus sp.; [3]): 2 µg/mL (≈ 1.06 µM)
MIC Coagulase Negative Staphylococcus (GC 4551) (Staphylococcus sp.; [3]): 4 µg/mL (≈ 2.13 µM)
MIC Coagulase Negative Staphylococcus (GC 6257) (Staphylococcus sp.; [3]): 4 µg/mL (≈ 2.13 µM)
MIC Staphylococcus aureus (ATCC 29213) (Staphylococcus sp.; [3]): 4 µg/mL (≈ 2.13 µM)
MIC Staphylococcus aureus (GC 1131) (Staphylococcus sp.; [3]): 8 µg/mL (≈ 4.26 µM)
MIC Staphylococcus aureus (GC 3051) (Staphylococcus sp.; [3]): 4 µg/mL (≈ 2.13 µM)
MIC Staphylococcus aureus (GC 3053) (Staphylococcus sp.; [3]): 4 µg/mL (≈ 2.13 µM)
MIC Staphylococcus aureus (GC 4541) (Staphylococcus sp.; [3]): 4 µg/mL (≈ 2.13 µM)
MIC Staphylococcus aureus (GC 4542) (Staphylococcus sp.; [3]): 4 µg/mL (≈ 2.13 µM)
MIC Staphylococcus aureus (GC 4544) (Staphylococcus sp.; [3]): 8 µg/mL (≈ 4.26 µM)
MIC Staphylococcus aureus (GC 4545) (Staphylococcus sp.; [3]): 4 µg/mL (≈ 2.13 µM)
MIC Staphylococcus aureus SMITH (GC 4543) (Staphylococcus sp.; [3]): 4 µg/mL (≈ 2.13 µM)
MIC Staphylococcus haemolyticus (GC 4546) (Staphylococcus sp.; [3]): 4 µg/mL (≈ 2.13 µM)
MIC Staphylococcus aureus-SMITH (GC 4543) (Staphylococcus sp.; strain SMITH GC 4543, broth dilution, 18 hours at 35° C.): 4 µg/mL (≈ 2.13 µM)
MIC Streptococcus agalactiae (GC 4564) (Streptococcus sp.; Streptococcus agalactiae (GC 4564), broth dilution, 18 hours at 35° C.): 4 µg/mL (≈ 2.13 µM)
MIC Streptococcus pneumoniae (ATCC 6301) (Streptococcus sp.; Streptococcus pneumoniae (ATCC 6301), broth dilution, 18 hours at 35° C.): 4 µg/mL (≈ 2.13 µM)
MIC Streptococcus pneumoniae (GC 1894) (Streptococcus sp.; Streptococcus pneumoniae (GC 1894), broth dilution, 18 hours at 35° C.): 8 µg/mL (≈ 4.26 µM)
MIC Streptococcus pneumoniae (GC 4565) (Streptococcus sp.; Streptococcus pneumoniae (GC 4565), broth dilution, 18 hours at 35° C.): 8 µg/mL (≈ 4.26 µM)
MIC Streptococcus pyogenes (GC 4563) (Streptococcus sp.; Streptococcus pyogenes (GC 4563), broth dilution, 18 hours at 35° C.): 4 µg/mL (≈ 2.13 µM)
MIC Streptococcus pneumoniae (ATCC 6301) (Streptococcus sp.; strain ATCC 6301): 4 µg/mL (≈ 2.13 µM)
MIC Streptococcus pneumoniae (GC 1894) (Streptococcus sp.; strain GC 1894): 8 µg/mL (≈ 4.26 µM)
MIC Streptococcus pyogenes (GC 4563) (Streptococcus sp.; strain GC 4563): 4 µg/mL (≈ 2.13 µM)
MIC Streptococcus agalactiae (GC 4564) (Streptococcus sp.; strain GC 4564): 4 µg/mL (≈ 2.13 µM)
MIC Streptococcus pneumoniae (GC 4565) (Streptococcus sp.; strain GC 4565): 8 µg/mL (≈ 4.26 µM)
